System: T cells in whole blood samples
Assay: IFN-γ release (QuantiFERON SARS-CoV-2 tubes, ELISA) in whole blood of vaccinated donors, Example 2
Assay type: cell-based, human

## phytohemagglutinin [Mit]
Donor 1, Day 4 after first dose of vaccine
  IFN-γ, Nil-subtracted: 7.19 IU/mL
Donor 1, Day 11 after first dose of vaccine
  IFN-γ, Nil-subtracted: >10 IU/mL
Donor 2, Day 4 after first dose of vaccine
  IFN-γ, Nil-subtracted: 5.74 IU/mL
Donor 2, Day 11 after first dose of vaccine
  IFN-γ, Nil-subtracted: >10 IU/mL
Donor 3, Day 4 after first dose of vaccine
  IFN-γ, Nil-subtracted: 7.07 IU/mL
Donor 3, Day 11 after first dose of vaccine
  IFN-γ, Nil-subtracted: >10 IU/mL
Donor 4, Day 4 after first dose of vaccine
  IFN-γ, Nil-subtracted: 5.78 IU/mL
Donor 4, Day 11 after first dose of vaccine
  IFN-γ, Nil-subtracted: >10 IU/mL
Donor 5, Day 4 after first dose of vaccine
  IFN-γ, Nil-subtracted: 7.13 IU/mL
Donor 5, Day 11 after first dose of vaccine
  IFN-γ, Nil-subtracted: >10 IU/mL
Donor 6, Day 4 after first dose of vaccine
  IFN-γ, Nil-subtracted: 6.59 IU/mL
Donor 6, Day 11 after first dose of vaccine
  IFN-γ, Nil-subtracted: >10 IU/mL
Donor 7, Day 4 after first dose of vaccine, […]
  IFN-γ, Nil-subtracted: 3.01 IU/mL
Donor 7, Day 11 after first dose of vaccine
  IFN-γ, Nil-subtracted: >10 IU/mL
Donor 8, Day 7 after first dose of vaccine
  IFN-γ, Nil-subtracted: 7.13 IU/mL
Donor 9, Day 0 after first dose of vaccine
  IFN-γ, Nil-subtracted: 6.19 IU/mL
Donor 9, Day 7 after first dose of vaccine
  IFN-γ, Nil-subtracted: >10 IU/mL
Donor 10, Day 7 (Second Dose)
  IFN-γ, Nil-subtracted: >10 IU/mL
Donor 10, Day 22 (First-dose)
  IFN-γ, Nil-subtracted: >10 IU/mL
